These results are taken from patent US4956357A (priority 1984, dated 1990).

In series [1] the test system is human androgen receptor. From the text:
It is also believed that an androgen-action,rather than an estrogen action, acts to prevent breast enlargement.

The test system of series [2] is gynecomastia. To be noted: alcoholic solution applied to the skin; cited from earlier work.
For series [3] the following is noted: cited from earlier work.
Series [4] relates to gonadotropin. The settings on record: in vivo; cited from earlier work.
The test system of series [5] is gynecomastia. The settings on record: treatment of gynecomastia; cited from earlier work.

Regarding `C[C@]12CCC(=O)C[C@@H]1CC[C@@H]1[C@@H]2CC[C@]2(C)[C@@H](O)CC[C@@H]12` [DHT, dihydrotestosterone], in series [1], the “binding to human androgen receptor” value is on record as “high affinity”. Also, in series [2], the “plasma DHT levels (systemic absorption)” value is given as “elevations in its plasma levels”. The oral stability result in series [3] (oral) is listed as “destroyed before reaching the circulatory system”. Moreover, in series [3] (parenteral), the half-life result is reported as “very short half-life”.
As to `CCC(=O)O[C@H]1CC[C@H]2[C@@H]3CC[C@H]4CC(=O)CC[C@]4(C)[C@H]3CC[C@]12C` [Dihydrotestosterone propionate], in series [4], the duration of action entry is recorded as “one-to three” and the gonadotropin suppression entry is recorded as “not effective in gonadotropin suppression”.
On to `C[C@]12CC[C@H]3[C@@H](CCC4=CC(=O)CC[C@@]43C)[C@@H]1CC[C@@H]2O` [testosterone], for which the breast size entry in series [5] is listed as “increased breast size”.
